PubChem BioAssay (NCI)
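1) Cells in 96-well plates. 2) Compound, 48 h, 5 concentrations. 3) Linear interpolation between surrounding doses. 4) Unreached endpoint = highest concentration. Abbreviation: GI50, concentration required for 50% inhibition of growth. At the TGI there is no net growth.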

What was measured:
Assay in all cases: NCI anticancer screen, dose series, 48 h
EKVX NSCLC = test system: EKVX NSCLC
LOX IMVI melanoma = test system: LOX IMVI melanoma
SK-MEL-28 melanoma = test system: SK-MEL-28 melanoma
OVCAR-4 ovarian = test system: OVCAR-4 ovarian
UACC-62 melanoma = test system: UACC-62 melanoma
SNB-75 CNS = test system: SNB-75 CNS
HCT-15 colon = test system: HCT-15 colon
UO-31 renal = test system: UO-31 renal
SN12C renal = test system: SN12C renal
786-0 renal = test system: 786-0 renal

Row | SMILES | TGI (EKVX NSCLC) [µM] | TGI (LOX IMVI melanoma) [µM] | TGI (SK-MEL-28 melanoma) [µM] | TGI (OVCAR-4 ovarian) [µM] | TGI (UACC-62 melanoma) [µM] | TGI (SNB-75 CNS) [µM] | TGI (HCT-15 colon) [µM] | TGI (UO-31 renal) [µM] | TGI (SN12C renal) [µM] | TGI (786-0 renal) [µM] | GI50 (EKVX NSCLC) [µM] | GI50 (LOX IMVI melanoma) [µM] | GI50 (SK-MEL-28 melanoma) [µM] | GI50 (OVCAR-4 ovarian) [µM] | GI50 (UACC-62 melanoma) [µM] | GI50 (SNB-75 CNS) [µM] | GI50 (HCT-15 colon) [µM] | GI50 (UO-31 renal) [µM] | GI50 (SN12C renal) [µM] | GI50 (786-0 renal) [µM]
1 | CCC(=O)Nc1ccc(N=NN(C)C)cc1 | > 100 | > 100 | > 100 | > 100 | > 100 | > 100 | > 100 | > 100 | > 100 | > 100 |  |  |  |  |  |  |  |  |  | 
2 | O=C(N/N=C/c1c(Cl)cccc1Cl)c1ccc(C(F)(F)F)nc1Nc1cccc(C(F)(F)F)c1 | > 27.9 | 11.5 | > 37.5 | > 100 | 4.12 | 54.6 | > 100 | 5.82 | 20.8 | 3.25 | 0.886 | 0.677 | 1.82 | 0.466 | 1.39 | 2.46 | 0.437 | 1.49 | 0.912 | 0.856
3 | COc1cc(C(=O)C/C(CCC(=O)Nc2ccc(Cl)cc2Cl)=N/NC(=O)C(=O)NN)ccc1O | > 100 | > 100 | > 100 | > 100 | > 100 | > 100 | > 100 | > 100 | > 100 | > 100 |  |  |  |  |  |  |  |  |  | 
4 | CC(=O)OCCOCNC(=S)N/N=C/c1ccc(Br)s1 | > 100 | > 100 | > 100 | > 100 | > 100 | > 100 | > 100 | > 100 | > 100 | > 100 |  |  |  |  |  |  |  |  |  | 
5 | C/C(CCn1[nH]c(=O)ccc1=O)=N\OCCCc1ccccc1 | > 100 | > 100 | > 100 | > 100 | > 100 | > 100 | > 100 | > 100 | > 100 | > 100 |  |  |  |  |  |  |  |  |  | 
6 | O=[N+]([O-])c1ccc(CSCc2ccc(Cl)cc2)cc1 | > 100 | > 100 | > 100 | > 100 | > 100 | > 100 | > 100 | > 100 | > 100 | > 100 |  |  |  |  |  |  |  |  |  | 
7 | [F][Sn]([F])([c]1ccccc1)[c]1ccccc1 | 3.96 | 3.29 | 3.75 | 3.39 | 5.15 | 4.61 | 3.26 | 3.34 | 3.18 | 2.98 | 1.83 | 1.7 | 1.96 | 1.68 | 1.77 | 1.7 | 1.65 | 1.92 | 1.68 | 1.57
8 | O=C(CSC(c1ccccc1)c1ccccc1)N/N=C/c1ccco1 | > 5.19 | 5.2 | 50.7 | 6.49 | 16.2 | 58.1 | 4.38 | 10.3 | 35.7 | 9.05 | 2.44 | 1.48 | 20.8 | 1.73 | 2.52 | 17.1 | 2.12 | 2.03 | 17.2 | 1.83
